Non-standard residues stand in square brackets, D forms with d. Residues, ends and D or L forms follow the SMILES beside them. *: point of attachment. Stearoyl = CCCCCCCCCCCCCCCCCC(=O)*; Lauroyl = CCCCCCCCCCCC(=O)*

Data set [1] has as its system rat cerebral cortical cell cultures (neurons) treated with β-amyloid peptide (amino acids 25-35). Briefly: Neuronal survival assay, protection against β-amyloid toxicity. The settings on record: 5 days. Format: cell-based. As to the method:
β-Amyloid peptide is known to be involved in Alzheimer's disease and is a toxic substance to neurons grown in culture (Pike et al., J. of Nezarosci., 13(4), 1676-1687 (1993); Yankner et al., Science, 250:279-282 (1990); Gozes et. al., Proc. Natl. Acad. Sci. USA, 93:[…] (1996)).
Rat cerebral cortical cell cultures were prepared by a slight modification of the techniques described by Forsythe and Westbrook (J. Physiol. Lord. 365:515, (1988)), in which cerebral cortex was used instead of hippocampus and newborn rats were utilized instead of E16 mice. Cerebral cortical cells (1.5-15×10^5 cells/35 mm dish) were plated on confluent cerebral cortical astrocyte feeder cultures as described (Gozes et al., J. Pharmacol Erp. Therap., 257:959-966 (1991)). The culture medium was DMEM-(Dulbeco Modified Eagle Medium) containing 5% horse serum and N3 [media supplement containing a hormone cocktail, according to (Romijn et al., Brain Res., 254:(4),583-589 (1981))]. After eight days growth in vitro, the cultures were given a complete change of medium and then were treated with the β-amyloid peptide (amino acids 25-35) for 5 days.
The β-amyloid peptide fragment was dissolved in water to a finalconcentration of 2.5 mM. […] Neurons were counted without knowledge of type of treatment as before. […]

The test system of data set [2] is male rats (Wistar) injected i.c.v. with the cholinergic blocker AF64A. The following applies: rat, in vivo. How it is done:
In vivo Model for Cholinergic Inhibition. 18 Male rats (Wistar, 250-300 g) were injected intracerebroventricularly (i.c.v.) at a rate of 0.21 μl/min., using plastic tubing (PE-20) attached to 25G needle; controls received an injection of saline 2 μl/side, experimental animals received injections of the cholinergic blocker (ethylcholine aziridium) AF64A (3 nmol/2 μl/side).
Drug treatment was initiated 7-10 days after AF64A injection. Animals were divided into two equal groups. Test group received daily nasal administration of St-Lys-Lys-Tyr-Leu-NH2 (SEQ ID NO:6) dissolved in 10% Sefsol™ and 40% isopropanol at a concentration of 10 μg/40 μl (20 μl administered through each nostril). […]
Rats were placed in a circular pool, 1.26 m in diameter, 0.2 m deep, equipped with a clear plexiglas column, with a 13.3 cm platform reaching just below the surface of the water (22-24° C). […] The latency of reaching the platform was recorded for each rat (in seconds) and the changes over days of training were graphed, which reflect learning and memory.
FIG. 3 depicts the effects of St-Lys-Lys-Tyr-D-Ala-NH2 (indicated KKYO in the figure) on learning and memory in the Alzheimer's in vivo test (AF64A-cholinotoxicity test) as described above. […] Following this test the platform is placed back in the water pool, but this time it is visible to the swimming rat and the time required to reach it is measured. […]

Data set [3] in a line: Biodistribution to brain after intranasal application of radioiodinated conjugate. It is filed as in vivo, rat. The settings on record: thirty minutes after application, FIG. 15. How it is done: St-Lys-Lys-Tyr-Leu-NH2 (SEQ ID NO:6) was radioiodinated by using the chloramine T methods as described in Gozes et al., Endocrinology, 134:2121-2125 (1994) and about 7.8×10^6 cpm/2 μl 5% Sefsol™, 20% isopropanol/rat were applied intranasally to 250-300 g rats. Animals were sacrificed 30 minutes following drug administration and the frontal cortex was removed, weighed and counted for radioactivity in a gamma counter. Radioactive tissue samples (containing 1400 cpm/gram sample) were thereafter homogenized and subjected to centrifugation (5,400 g for 25 min.). Supernatants were then subjected to HPLC analysis against St-Lys-Lys-Tyr-Leu-NH2 (SEQ ID NO:6) as a marker (eluting using an acetonitrile gradient at fraction 25). Samples were monitored for radioactivity in a gamma counter.

In data set [4] the test system is Apolipoprotein E-deficient newborn mice. The experiment in a line: Acquisition of developmental milestones in a model for mental retardation. Format: in vivo. The following applies: ApoE deficient newborn mice, s.c. injection. How it is done:
It has recently been discovered that mice deficient in apolipoprotein E (ApoE) (Plump et al., Cell, 71:343-363 (1992)) are retarded in their acquisition of developmental milestones.
8 newborn normal mice were injected (s.c. 1.2 μg 120 μu) with St-Lys-Lys-Tyr-Leu-NH2 or with saline. 8 ApoE deficient newborn mice were treated similarly.

For data set [5] the following is noted: same amounts of radiolabeled conjugate; Gozes et al., Endocrinology 134:2121-2125 (1994); cited from earlier work.

In the case of `CCCCCCCCCCCC(=O)N[C@@H](CCCCN)C(=O)N[C@@H](CCCCN)C(=O)N[C@@H](Cc1ccc(O)cc1)C(=O)N[C@@H](CC(C)C)C(N)=O` [Lau-Lys-Lys-Tyr-Leu-NH2] (Lauroyl-KKYL-NH2), the “Active concentration (M)” value in data set [1] (added together with 25 μM β-amyloid peptide (25-35), NSE-stained neuron counts) is 10^-11 -10^-10 M. Moreover, the “Neuronal survival (%)” value in data set [1] (at the active concentration, with 25 μM β-amyloid peptide (25-35), as compared to control) is reported as 83-84%. Turning to `CCCCCCCCCCCCCCCCCC(=O)N[C@@H](CCCCN)C(=O)N[C@@H](CCCCN)C(=O)N[C@@H](Cc1ccc(O)cc1)C(=O)N[C@H](C)C(N)=O` [St-Lys-Lys-Tyr-D-Ala-NH2] (Stearoyl-KKY[dA]-NH2), the “time required to reach the visible platform (possible motor deficits)” value in data set [2] was “no differences between the groups”. Consider `CCCCCCCCCCCCCCCCCC(=O)N[C@@H](CCCCN)C(=O)N[C@@H](CCCCN)C(=O)N[C@@H](Cc1ccc(O)cc1)C(=O)N[C@@H](CC(C)C)C(N)=O` [St-Lys-Lys-Tyr-Leu-NH2] (Stearoyl-KKYL-NH2), for which, in data set [3], the “intact conjugate in brain extract by HPLC” value is given as “could be observed in the brain”.

St-Nle^17 -VIP-NH2: in data set [4] (versus untreated ApoE deficient mice, FIGS. 10 and 11), the “forelimb placing behavior acquisition” value is reported as “improved their placing acquisition essentially to the level of control”. Further, the cliff avoidance acquisition result in data set [4] (FIGS. 12 and 13) is given as “even better cliff avoidance acquisition than normal controls or similar cliff avoidance behavior to control”. Besides, the “radioactivity obtained in the intestine” value in data set [5] is on record as 3700 cpm/g.
